This is an account of results in publication PMC6759758, “Cofactor Selectivity in Methylmalonyl Coenzyme A Mutase, a Model Cobamide-Dependent Enzyme” (mBio, 2019).

The target of assay [1] is T1, SmMCM (methylmalonyl-CoA mutase from S. meliloti) (Rhizobium meliloti, UniProt O86028).
T1 construct: made in house; host or cells: E. coli BL21(DE3)pLysS
T1 sequence (O86028 2-712): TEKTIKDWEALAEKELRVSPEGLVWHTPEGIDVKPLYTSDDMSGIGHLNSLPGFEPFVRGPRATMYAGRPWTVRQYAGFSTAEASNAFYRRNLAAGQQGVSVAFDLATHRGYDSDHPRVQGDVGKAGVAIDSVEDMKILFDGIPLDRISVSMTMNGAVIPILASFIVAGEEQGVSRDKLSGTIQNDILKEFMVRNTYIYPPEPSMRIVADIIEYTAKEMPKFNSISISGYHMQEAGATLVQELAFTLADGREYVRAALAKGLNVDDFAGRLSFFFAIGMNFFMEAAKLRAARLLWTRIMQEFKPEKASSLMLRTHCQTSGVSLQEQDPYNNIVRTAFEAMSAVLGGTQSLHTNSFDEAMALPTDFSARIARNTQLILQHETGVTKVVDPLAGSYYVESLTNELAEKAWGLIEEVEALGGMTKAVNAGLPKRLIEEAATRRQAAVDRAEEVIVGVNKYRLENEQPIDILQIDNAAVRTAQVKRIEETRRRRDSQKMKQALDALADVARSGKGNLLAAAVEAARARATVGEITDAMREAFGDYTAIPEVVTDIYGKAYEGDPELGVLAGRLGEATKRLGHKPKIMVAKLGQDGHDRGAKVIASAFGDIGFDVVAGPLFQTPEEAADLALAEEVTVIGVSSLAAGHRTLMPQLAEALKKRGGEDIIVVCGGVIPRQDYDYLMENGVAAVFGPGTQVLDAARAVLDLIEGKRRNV
The experiment in a line: biochemical. Format: binding, Sinorhizobium meliloti. The conditions noted are these: for binding to SmMCM detected by fluorescence quench (in words): low-micromolar / micromolar concentrations. On the procedure:
(§1) All steps involving cobamides were conducted in the dark. The plate was centrifuged for 1 min at 3,800 rpm to level the surface of the liquid in each well. The plate was then incubated for 40 min at 30°C to allow binding, with a brief shaking step after 30 min. […] Following incubation, fluorescence emission at 340 nm (5-nm slit width) was measured upon excitation at 282 nm (5-nm slit width) using a Tecan Infinite M1000 Pro plate reader. Fluorescence, normalized to the initial value, was plotted as a function of cobamide concentration, and fitted to the following equation ([134]): F/F0=1+ΔFmax/F0([E]+[L]+Kd)−([E]+[L]+Kd)^2−4[E][L]/2[E] where F is fluorescence, F0 is initial fluorescence, [E] is total enzyme concentration, [L] is total ligand concentration, and Kd is the binding dissociation constant.

In assay [2] the test system is MCM. Details: method as in PMID 10563814. The conditions noted are these: cited from earlier work.
The target of the next assay is VpMCM (V. parvula MCM) (Veillonella parvula, UniProt A0A124EFR6). Nature of the assay: Fluorescence binding assay, VpMCM. The note with it: fitted curve, error = standard error of the curve fit; equimolar α and β subunits. How it is done: The α subunit of VpMCM (encoded by Vpar_RS09005) was expressed with an N-terminal 6×His tag from the pET-Duet expression vector in E. coli BL21(DE3). Protein expression was induced with 520 μM IPTG for 6 h at 30°C. The protein was batch purified by nickel affinity and subsequently purified by FPLC using a HiTrapQ column with an NaCl gradient from 50 to 500 mM in […], pH 8.0, 10% glycerol. The β subunit of VpMCM (encoded by Vpar_RS09000) was expressed separately with an N-terminal 6×His tag from the pET-Duet expression vector in E. coli BL21(DE3). […] Purified protein was dialyzed into 25 mM Tris-HCl, pH 8.0, 300 mM NaCl, 10% glycerol, and 1 mM β-mercaptoethanol. Concentration of pure α and β subunits (Fig. S7) was determined by absorbance at 280 nm (A280) using the theoretically calculated extinction coefficients 75,290 M^−1 cm^−1 and 74,260 M^−1 cm^−1, respectively ([125]). Equimolar amounts of α and β subunits were combined during the setup of fluorescence binding assays.
VpMCM (V. parvula MCM), sequence (A0A124EFR6 entry or part of it): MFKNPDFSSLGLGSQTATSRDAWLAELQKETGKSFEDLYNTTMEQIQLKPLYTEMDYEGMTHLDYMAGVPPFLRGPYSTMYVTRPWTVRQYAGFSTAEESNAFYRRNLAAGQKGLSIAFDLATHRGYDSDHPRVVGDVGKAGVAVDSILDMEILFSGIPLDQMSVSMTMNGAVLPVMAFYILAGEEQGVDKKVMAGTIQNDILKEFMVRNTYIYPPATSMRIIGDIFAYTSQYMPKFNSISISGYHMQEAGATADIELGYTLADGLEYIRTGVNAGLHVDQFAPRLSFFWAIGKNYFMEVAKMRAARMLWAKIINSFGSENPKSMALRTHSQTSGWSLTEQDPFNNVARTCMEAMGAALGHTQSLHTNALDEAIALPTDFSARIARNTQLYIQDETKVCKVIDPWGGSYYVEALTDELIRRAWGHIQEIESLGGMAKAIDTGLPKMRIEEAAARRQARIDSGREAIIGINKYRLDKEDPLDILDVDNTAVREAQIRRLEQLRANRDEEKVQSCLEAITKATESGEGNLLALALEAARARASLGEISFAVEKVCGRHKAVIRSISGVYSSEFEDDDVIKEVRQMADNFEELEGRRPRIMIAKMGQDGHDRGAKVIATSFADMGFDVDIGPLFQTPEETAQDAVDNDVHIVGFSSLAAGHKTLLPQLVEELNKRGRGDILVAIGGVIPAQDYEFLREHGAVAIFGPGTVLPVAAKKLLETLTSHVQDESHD
as §1

For the next assay, the target named is T2, EcMCM (E. coli MCM) (Escherichia coli, UniProt P27253).
T2 construct: 6xHis (N); made in house; host or cells: E. coli BL21(DE3)
T2 sequence (P27253 whole entry): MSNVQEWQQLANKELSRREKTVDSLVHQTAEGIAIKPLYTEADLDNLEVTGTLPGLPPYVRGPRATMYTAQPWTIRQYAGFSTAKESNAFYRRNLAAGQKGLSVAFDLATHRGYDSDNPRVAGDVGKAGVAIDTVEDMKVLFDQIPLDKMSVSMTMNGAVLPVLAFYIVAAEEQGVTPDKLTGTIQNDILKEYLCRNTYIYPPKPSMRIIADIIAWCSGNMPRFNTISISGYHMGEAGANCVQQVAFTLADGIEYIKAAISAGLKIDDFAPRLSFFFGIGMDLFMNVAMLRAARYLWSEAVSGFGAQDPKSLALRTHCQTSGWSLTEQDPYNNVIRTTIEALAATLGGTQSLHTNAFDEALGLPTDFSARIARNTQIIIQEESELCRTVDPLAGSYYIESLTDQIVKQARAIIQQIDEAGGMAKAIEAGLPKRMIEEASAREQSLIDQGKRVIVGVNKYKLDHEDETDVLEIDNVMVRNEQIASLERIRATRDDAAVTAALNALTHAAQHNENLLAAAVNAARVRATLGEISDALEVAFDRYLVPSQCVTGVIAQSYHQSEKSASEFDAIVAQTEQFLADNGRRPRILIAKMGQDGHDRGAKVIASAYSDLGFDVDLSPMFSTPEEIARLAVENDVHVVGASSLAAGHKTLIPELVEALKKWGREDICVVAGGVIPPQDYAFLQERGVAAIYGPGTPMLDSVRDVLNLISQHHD
Nature of the assay: Fluorescence binding assay, EcMCM. The note with it: read-out: Kd EcMCM; fitted curve, error = standard error of the curve fit. On the procedure: as §1

The test system of assay [3] is MCM. Details: method as in PMID 14235521. The note with it: cited from earlier work.
For assay [4], the target named is T3, SmMCM (Sinorhizobium meliloti MCM) (Rhizobium meliloti, UniProt O86028).
T3 construct: made in house; host or cells: E. coli BL21(DE3)pLysS
T3 sequence (O86028 2-712): T1 sequence (O86028 2-712)
The experiment in a line: Thiokinase-coupled spectrophotometric MCM activity assay. Format: biochemical. The conditions noted are these: SmMCM 50 nM reconstituted with 2 μM cobamide; (R)-methylmalonyl-CoA to succinyl-CoA, steady state, 30°C. How it is done: Final concentrations of reagents in the assays were as follows: Tris-phosphate buffer (pH 7.5), 100 mM Tris, 50 mM phosphate; dithionitrobenzoate (DTNB), 400 μM; ADP, 1 mM; MgCl2, 10 mM; (R)-methylmalonyl-CoA, 0 to 4 mM; thiokinase, 5 μM; MCM, 50 nM; and cobamides, 2 μM.
Three separate mixes were prepared, all in 1× Tris-phosphate buffer: an assay mix containing DTNB, ADP, and MgCl2; a substrate mix containing (R)-methylmalonyl-CoA; and an enzyme mix containing thiokinase, MCM, and cobamides. All steps involving cobamides were conducted in the dark. The assay and enzyme mixes were prepared as a master mix and aliquoted into 96-well plates; substrate mixes were prepared in individual wells, in triplicate. All components were incubated at 30°C for 40 min to equilibrate temperature and allow prebinding of cobamides and MCM. After incubation, one replicate at a time, the substrate mix was added to the assay mix, followed by the enzyme mix. Absorbance at 412 nm (A412) was recorded immediately after addition of enzyme and for 1 to 3 min, every 3 s, on a BioTek Synergy 2 plate reader. The increase in A412 in reaction mixtures lacking substrate was subtracted from all readings, to account for reactivity of DTNB with thiols on protein surfaces.

In another assay the target is T4, SmMCM (Rhizobium meliloti, UniProt O86028).
T4 construct: made in house; host or cells: E. coli BL21(DE3)pLysS
T4 sequence (O86028 2-712): T1 sequence (O86028 2-712)
The experiment in a line: Filtration binding assay. Details: species or system Sinorhizobium meliloti. The conditions noted are these: 10 μM cobamide, 15 μM SmMCM. How it is done: Cobamides (10 μM) with and without MCM (15 μM) were incubated in 100 mM Tris, 50 mM phosphate, pH 7.5, at 30°C for 40 min, transferred to Nanosep 10K Omega centrifugal devices (Pall Corporation), and centrifuged for 5 min at 13,900 × g to separate unbound cobamides from enzyme-bound cobamides. The UV-Vis spectra of the filtrates were recorded on a BioTek Synergy 2 plate reader.

The subject of another assay is P. shermanii MCM. Further details: method as in PMID 11031263. The conditions noted are these: cited from earlier work.
The mark [5] stands for this setting: SmMCM 0.2 μM, pH 7.5, 30°C, average and standard deviation for three or more independent experiments, n. d. = binding too weak to determine Kd.

Read-outs that look alike come from different tables or passages of the source.

As for `C/C1=C2/[N-][C@H]([C@H](CC(N)=O)[C@@]2(C)CCC(=O)NC[C@@H](C)O)[C@]2(C)N=C(/C(C)=C3N=C(/C=C4N=C1[C@@H](CCC(N)=O)C\4(C)C)[C@@H](CCC(N)=O)[C@]\3(C)CC(N)=O)[C@@H](CCC(N)=O)[C@]2(C)CC(N)=O.[CH2-][C@H]1O[C@@H](n2cnc3c(N)ncnc32)[C@H](O)[C@@H]1O.[Co+3]` [Ado-cobinamide, adenosylcobinamide, reference compound], the Kd in assay [1] stood at 800 ± 200 nM. Further, in the assay with MCM [2], the “support of MCM activity in vitro” value is on record as “does not support MCM activity”.
With `C/C1=C2/[N-][C@H]([C@H](CC(N)=O)[C@@]2(C)CCC(=O)NC[C@@H](C)OP(=O)([O-])O[C@H]2[C@@H](O)[C@@H](n3cnc4ccccc43)O[C@@H]2CO)[C@]2(C)N=C(/C(C)=C3N=C(/C=C4N=C1[C@@H](CCC(N)=O)C\4(C)C)[C@@H](CCC(N)=O)[C@]\3(C)CC(N)=O)[C@@H](CCC(N)=O)[C@]2(C)CC(N)=O.[CH2-][C@H]1O[C@@H](n2cnc3c(N)ncnc32)[C@H](O)[C@@H]1O.[Co+3]` [Ado[Bza]Cba, Benzimidazolylcobamide], the values for the equilibrium dissociation constant (Kd) (on VpMCM (V. parvula MCM); at EcMCM (E. coli MCM); in assay [1] (setting [5])) were 1400 ± 300 nM, 1800 ± 200 nM and 400 ± 200 nM, respectively. The “MCM activity in S. meliloti bacteroids” value in the assay on MCM [3] was “intermediate”.
Regarding `C/C1=C2/[N-][C@H]([C@H](CC(N)=O)[C@@]2(C)CCC(=O)NC[C@@H](C)OP(=O)([O-])O[C@H]2[C@@H](O)[C@@H](n3cnc4cc(C)c(C)cc43)O[C@@H]2CO)[C@]2(C)N=C(/C(C)=C3N=C(/C=C4N=C1[C@@H](CCC(N)=O)C\4(C)C)[C@@H](CCC(N)=O)[C@]\3(C)CC(N)=O)[C@@H](CCC(N)=O)[C@]2(C)CC(N)=O.[CH2-][C@H]1O[C@@H](n2cnc3c(N)ncnc32)[C@H](O)[C@@H]1O.[Co+3]` [AdoCbl, adenosylcobalamin, reference compound], the Kd on VpMCM (V. parvula MCM) is 2800 ± 600 nM; at EcMCM (E. coli MCM), 600 ± 100 nM; in assay [1] (setting [5]) it was 30 ± 20 nM. Besides, in the assay with MCM [3], the “MCM activity in S. meliloti bacteroids” value is reported as “highest”. In addition, the kcat in assay [4] was found to be 26 ± 1 s⁻¹.
For the molecule “5-Hydroxybenzimidazolylcobamide [Ado[5-OHBza]Cba]”, the “binding to SmMCM in filtration-based assay” value on SmMCM is recorded as “little to no binding”. The “binding to SmMCM detected by fluorescence quench (in words)” value in assay [1] was “no binding”.
Regarding `C/C1=C2/[N-][C@H]([C@H](CC(N)=O)[C@@]2(C)CCC(=O)NC[C@@H](C)OP(=O)([O-])OP(=O)([O-])OC[C@H]2O[C@@H](n3cnc4c(=O)[nH]c(N)nc43)[C@H](O)[C@@H]2O)[C@]2(C)N=C(/C(C)=C3N=C(/C=C4N=C1[C@@H](CCC(N)=O)C\4(C)C)[C@@H](CCC(N)=O)[C@]\3(C)CC(N)=O)[C@@H](CCC(N)=O)[C@]2(C)CC(N)=O.[CH2-][C@H]1O[C@@H](n2cnc3c(N)ncnc32)[C@H](O)[C@@H]1O.[Co]` [adenosylcobinamide-GDP], the “support of P. shermanii MCM activity compared to AdoCbl” value in the assay on P. shermanii MCM is on record as “only slight catalytic impairment”.
Take `C/C1=C2/[N-][C@H]([C@H](CC(N)=O)[C@@]2(C)CCC(=O)NC[C@@H](C)OP(=O)([O-])O[C@H]2[C@@H](O)[C@@H](n3cnc4ncnc(N)c43)O[C@@H]2CO)[C@]2(C)N=C(/C(C)=C3N=C(/C=C4N=C1[C@@H](CCC(N)=O)C\4(C)C)[C@@H](CCC(N)=O)[C@]\3(C)CC(N)=O)[C@@H](CCC(N)=O)[C@]2(C)CC(N)=O.[CH2-][C@H]1O[C@@H](n2cnc3c(N)ncnc32)[C@H](O)[C@@H]1O.[Co+3]` [Ado[Ade]Cba, Adeninylcobamide]: the Kd on VpMCM (V. parvula MCM) turned out to be 9000 ± 4000 nM; on EcMCM (E. coli MCM), 1600 ± 400 nM. The “MCM activity in S. meliloti bacteroids” value in the assay on MCM [3] is recorded as “absent”. Also, the “binding to SmMCM in filtration-based assay” value at SmMCM is “did not bind to any significant extent”. Besides, in assay [1], the “binding to SmMCM detected by fluorescence quench (in words)” value was “did not bind to any significant extent”.

One may read the Kd as a measure of binding affinity in units of concentration. By kcat is commonly meant the number of substrate molecules converted per active site and unit of time at saturation.
